Test results taken from patent US20100234325A1 (priority 2009, published 2010).
Values joined by “and” are separate entries in the source; they are usually repeats but may differ in a detail not shown here. Equal values may be shown once. Read-outs that look alike come from different tables or passages of the source.

Experiments:
[1] = test system: L1210 leukemia; assay: intracerebrally implanted L1210 leukemia in vivo; set-up: species or system murine; details: for leukemia cell burden after therapy: highest non-toxic dose; for increase in lifespan (ILS): highest non-toxic doses
[2] = test system: D54; details: intrathecal administration; cited from earlier work
[3] = test system: TE-671; details: intrathecal administration; cited from earlier work
[4] = test system: D54 tumor; details: intraarterial or intravenous administration; cited from earlier work
[5] = test system: human glioblastoma xenograft U-251; assay type: in vivo
[6] = test system: MX-1 human breast tumor; assay type: in vivo
[7] = test system: L1210 leukemia; details: intracerebral L1210 model, typical value; cited from earlier work
[8] = test system: SF-268; details: SF-268 glioma cell line
From the text: (§1) Additional in vitro studies vs. U251, D54 and MDA-MB-361 cells also included 4-HC.

[9] = test system: SNB-19; details: SNB-19 glioma cell line
From the text: as §1

[10] = test system: SNB-7; details: SNB-7 glioma cell line
From the text: as §1

[11] = test system: pBR322 DNA
[12] = after 6 hours, ambient temperature, 31P-NMR
[13] = test system: L1210 leukemia; details: IP implant; cited from earlier work

O=P1(N(CCCl)CCCl)NC(OO)CCO1 (centres unmarked) [4-HC, 4-hydroperoxycyclophosphamide]
activity against intracerebrally implanted L1210 leukemia ([1]; implant of 10^4 cells): essentially inactive
activity against D54 brain tumor model [2]: active
activity against TE-671 brain tumor model [3]: active
activity against D54 tumor [4]: active

O=NN(CCCl)C(=O)NCCCl [BCNU, carmustine, reference compound]
ILS ([5]; in vivo): 110-150% and 130%
ILS ([6]; in vivo): 13%

O=P1(N(CCCl)CCCl)NCCCO1 (centres unmarked) [CPA, cyclophosphamide, reference compound]
leukemia cell burden after therapy ([1]; implant of 10^4 cells): 1.3×10^2 cells
increase in lifespan (ILS) ([1]; implant of 10^5 L1210 cells): 37%
highest non-toxic dose (typical) [7]: 250 to 300 mg/kg

O=P1(N(CCCl)CCCl)NC(OOC2CCOP(=O)(N(CCCl)CCCl)N2)CCO1 (centres unmarked) [peroxyCPA, 4-peroxy-cyclophosphamide]
leukemia cell burden after therapy ([1]; implant of 10^4 cells): 1.0×10^0 cells
increase in lifespan (ILS) over controls ([1]; implant of 10^4 cells, highest non-toxic dose (300 mg/kg)): 85%
reduction of leukemia cell burden relative to CPA ([1]; implant of 10^5 L1210 cells): two orders of magnitude more
increase in lifespan (ILS) ([1]; implant of 10^5 L1210 cells): 100%
highest non-toxic dose ([1]; intracerebral L1210 model): 300 mg/kg
in vitro activity compared to BCNU and temozolomide [8]: superior activity
in vitro activity compared to BCNU and temozolomide [9]: superior activity
in vitro activity compared to BCNU and temozolomide [10]: superior activity
ILS ([5]; IC-implanted U-251, one (first) study): 300-350%
ILS ([5]; IC-implanted U-251, second study): 180%
ILS ([6]; IC-implanted MX-1): 69%
DNA crosslinking [11]: crosslinks DNA
remaining in human serum [12]: 74%
activity against intraperitoneally-implanted L1210 leukemia [13]: curative activity
